The values below come from ChEMBL document CHEMBL1201862, “PubChem BioAssay data set” (2004).

Each structure is given as a SMILES string.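 All cell lines were grown in 96-well plates and treated with compound for 48 hours. GI50 is the concentration that inhibits growth by half.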 The source made the active and inactive calls. Rule as the data show it: active = GI50 up to about 1.1 µM and inactive = higher.

What all share (assay): inhibition of tumour cell growth, NCI panel, 48 h
In experiment [1] the test system is 786-0.
Experiment [2] has as its system ACHN.
For experiment [3], the system named is COLO 205.
The test system of experiment [4] is HCC 2998.
Experiment [5] has as its system HL-60.
Experiment [6] deals with M14.
The subject of experiment [7] is MCF7.
The test system of experiment [8] is NCI-H23.
The test system of experiment [9] is SF-268.
The test system of experiment [10] is SF-295.
Experiment [11] has as its system SK-MEL-28.
Experiment [12] has as its system SK-MEL-5.
For experiment [13], the system named is SK-OV-3.
For experiment [14], the system named is SN12C.
Experiment [15] relates to SR.
Experiment [16] relates to T47D.
Experiment [17] has as its system UO-31.
Experiment [18] relates to MDA-MB-435.
Experiment [19] has as its system SK-MEL-2.
In experiment [20] the test system is HOP-92.

Consider `CC(C)c1ccc2nc3ccc(C(=O)NCCN(C)C)cn3c(=O)c2c1`, for which the GI50 in experiment [1] was 14.6 µM (inactive); in [2] it was 27.5 µM (inactive); in [3], 16.2 µM (inactive); in experiment [4], 14.1 µM (inactive); in experiment [5], 16.3 µM (inactive); in experiment [6], 14.6 µM (inactive). The GI50 is 16.3 µM (inactive) in experiment [7]; 15.5 µM (inactive) in experiment [8]; 17.5 µM (inactive) in experiment [9]; 10.9 µM (inactive) in experiment [10]; 16.5 µM (inactive) in experiment [11]; 12.4 µM (inactive) in experiment [12]. In addition, the GI50 in experiment [13] is 17.5 µM (inactive); in experiment [14] it was 14.8 µM (inactive); in experiment [15] it was 17.5 µM (inactive); in experiment [16], 19.1 µM (inactive); in experiment [17], 14.6 µM (inactive).
For the compound `CC1(C)N[PH]2(Nc3ccccc3O2)OC1=O`, the GI50 was > 100 µM (inactive) in experiment [1]; 42.3 µM (inactive) in [2]; 17.8 µM (inactive) in experiment [3]; > 100 µM (inactive) in experiment [4]; 44.3 µM (inactive) in experiment [5]; 38.5 µM (inactive) in [6]. For the same compound, the GI50 was 22.8 µM (inactive) in experiment [7]; 16.4 µM (inactive) in experiment [18]; 67.9 µM (inactive) in experiment [8]; > 100 µM (inactive) in [9]; 24.7 µM (inactive) in experiment [10]; 86.9 µM (inactive) in experiment [11]. Besides, the GI50 in experiment [12] is 24.3 µM (inactive); in experiment [13], > 100 µM (inactive); in experiment [14], > 100 µM (inactive); in [16], > 100 µM (inactive); in [17], 96.4 µM (inactive).
On to `O=C1CC[C@@]23CC(=O)O[C@@H]2CCCC3C1` (stereo not given in full), for which the GI50 in [1], in experiment [2], in experiment [3], in experiment [4], in [5] and in experiment [6] was > 100 µM (inactive) throughout. Moreover, the GI50 in [7], in experiment [8], in experiment [9], in experiment [10], in [11] and in experiment [19] was > 100 µM (inactive) in each case. The GI50 in experiment [12], in [13], in experiment [14], in [15], in experiment [16] and in [17] was > 100 µM (inactive) each time.
Consider `O=C1C=C(c2ccccc2)OC1C1Sc2ccccc2NC1=O` (stereo not given), for which the GI50 in experiment [1] was 5.83 µM (inactive); in [2], 4.9 µM (inactive); in [3] it was 7.73 µM (inactive); in [4], 5.69 µM (inactive); in [5], 3.15 µM (inactive); in [20], 9.68 µM (inactive). Moreover, the GI50 in experiment [6] was 8.67 µM (inactive); in experiment [7] it was 3.81 µM (inactive); in experiment [18], 5.11 µM (inactive); in experiment [8], 3.77 µM (inactive); in [9], 7.71 µM (inactive); in [10] it was 5.98 µM (inactive). For the same compound, the GI50 in experiment [11] was 9.73 µM (inactive); in experiment [19], 8.51 µM (inactive); in experiment [12], 9.51 µM (inactive); in experiment [13], 8.09 µM (inactive); in experiment [14] it was 9.23 µM (inactive); in [16], 10.4 µM (inactive). The GI50 in experiment [17] is 7.26 µM (inactive).
With `COC(=O)c1ccc(Oc2nc3ccccc3nc2-c2cccs2)cc1`, the GI50 in experiment [1] was 34.4 µM (inactive); in experiment [2], 71.3 µM (inactive); in [3], > 100 µM (inactive); in [5], > 100 µM (inactive); in [6] it was 89.5 µM (inactive); in experiment [7], 3.16 µM (inactive). The GI50 in [18] was > 100 µM (inactive); in [8], 23.6 µM (inactive); in experiment [9], 21.3 µM (inactive); in experiment [10] it was 18.7 µM (inactive); in [11], > 100 µM (inactive); in [19], > 100 µM (inactive). In addition, the GI50 in [12] is > 100 µM (inactive); in experiment [13] it was 35.5 µM (inactive); in [14], > 100 µM (inactive); in [15], 48.5 µM (inactive); in experiment [16], 60.8 µM (inactive); in [17] it was > 100 µM (inactive).
Consider `CCCC(=O)OCC1OC(n2cc(F)c(=O)[nH]c2=O)C(F)C1O` (stereo not given), for which the GI50 is 30.6 µM (inactive) in experiment [1]; 10.9 µM (inactive) in experiment [2]; 24.5 µM (inactive) in [3]; > 100 µM (inactive) in experiment [4]; > 100 µM (inactive) in experiment [5]; > 100 µM (inactive) in [20]. Moreover, the GI50 was 18.8 µM (inactive) in experiment [6]; 0.456 µM (active) in [7]; 61.5 µM (inactive) in [18]; > 88.7 µM (inactive) in [8]; > 26.4 µM (inactive) in experiment [9]; > 27.5 µM (inactive) in [10]. The GI50 in experiment [11] was > 100 µM (inactive); in experiment [19], > 100 µM (inactive); in [12], > 40.4 µM (inactive); in experiment [13] it was > 74 µM (inactive); in [14], > 82.8 µM (inactive); in [16], > 100 µM (inactive). For the same compound, the GI50 in experiment [17] was 74.8 µM (inactive).
For the compound `OC1(C(F)(F)F)OCCN=C1C(F)(F)F` (stereo not given), the GI50 in experiment [1] was > 100 µM (inactive); in [2], > 100 µM (inactive); in experiment [3] it was > 100 µM (inactive); in experiment [4], > 100 µM (inactive); in experiment [5] it was 37.7 µM (inactive); in [20], 60.5 µM (inactive). Further, the GI50 is > 100 µM (inactive) in experiment [6]; > 100 µM (inactive) in [7]; > 100 µM (inactive) in experiment [18]; > 100 µM (inactive) in experiment [8]; 53.8 µM (inactive) in experiment [9]; > 100 µM (inactive) in experiment [10]. In addition, the GI50 is > 100 µM (inactive) in experiment [11]; 31.5 µM (inactive) in [19]; 56.2 µM (inactive) in [12]; > 100 µM (inactive) in experiment [13]; 65.9 µM (inactive) in experiment [14]; > 100 µM (inactive) in [16]. The GI50 in [17] is > 100 µM (inactive).
Regarding `O=c1ccn(C2OC(CO)C(O)C2[Se]c2ccccc2)c(=O)[nH]1` (stereo not given), the GI50 is > 100 µM (inactive) in [1]; > 100 µM (inactive) in [2]; > 100 µM (inactive) in experiment [3]; 92.3 µM (inactive) in [4]; > 100 µM (inactive) in experiment [5]; > 100 µM (inactive) in experiment [20]. The GI50 in experiment [6], in experiment [7], in experiment [18], in [8], in experiment [9] and in experiment [10] was > 100 µM (inactive) each time. For the same compound, the GI50 in experiment [11], in experiment [19], in experiment [12], in experiment [13], in experiment [14] and in experiment [15] was > 100 µM (inactive) in each case. In experiment [17], the GI50 was > 100 µM (inactive).
For `C/C(=C\COP(=O)(O)CP(=O)(O)O)CC/C=C(\C)CNc1ccccc1`, the GI50 in experiment [1], in [2], in [3], in experiment [5], in experiment [6] and in experiment [7] was > 100 µM (inactive) in each case. Also, the GI50 in experiment [18] is > 100 µM (inactive); in experiment [8], 6.28 µM (inactive); in [9], > 100 µM (inactive); in experiment [10], > 100 µM (inactive); in experiment [11], > 100 µM (inactive); in experiment [19] it was > 100 µM (inactive). Moreover, the GI50 in experiment [12], in [13], in experiment [14], in experiment [16] and in [17] was > 100 µM (inactive) in each case.
For the compound `Cc1cc(N(CCC#N)CCC#N)ccc1/C=C(\NC(=O)/C=C/c1ccccc1)C(=O)Nc1ccc(Cl)cc1`, the GI50 in experiment [1] is > 100 µM (inactive); in [2] it was 1.83 µM (inactive); in experiment [3], 1.07 µM (active); in [4], 4.33 µM (inactive); in [5], 5.6 µM (inactive); in experiment [20] it was > 100 µM (inactive). In addition, the GI50 was 9.16 µM (inactive) in experiment [6]; 27 µM (inactive) in [7]; 1.94 µM (inactive) in experiment [18]; > 63.1 µM (inactive) in [8]; > 100 µM (inactive) in experiment [9]; 4.86 µM (inactive) in experiment [10]. Besides, the GI50 in [11] is > 100 µM (inactive); in experiment [19], > 59.6 µM (inactive); in experiment [12] it was 0.179 µM (active); in experiment [13] it was > 100 µM (inactive); in experiment [14], > 75.7 µM (inactive); in experiment [16] it was > 100 µM (inactive). The GI50 in experiment [17] is 11 µM (inactive).
On to `O=C(O)/C=C(/CC(=O)O)C(=O)O`, for which the GI50 is 17.5 µM (inactive) in [1]; 18.1 µM (inactive) in [2]; 17.6 µM (inactive) in [3]; 30.8 µM (inactive) in experiment [4]; 21 µM (inactive) in experiment [5]; 18.7 µM (inactive) in experiment [6]. For the same compound, the GI50 in experiment [7] was 19.3 µM (inactive); in [18], 18.3 µM (inactive); in [8] it was 23.2 µM (inactive); in [9] it was 19 µM (inactive); in [10] it was 18.1 µM (inactive); in [11] it was 21.2 µM (inactive). The GI50 in experiment [19] is 19.5 µM (inactive); in [12], 21 µM (inactive); in experiment [13], 21.5 µM (inactive); in experiment [14], 19.4 µM (inactive); in experiment [16], 20.2 µM (inactive); in [17], 17.2 µM (inactive).
